# Values quoted from earlier work in patent US12326454B2 (Arium BioLabs LLC, priority 2019, dated 2025).
# Molecular target: cMET (Homo sapiens, UniProt P08581)
# Conditions: stabilizes the A-loop, auto-inhibited conformation
# cMET, sequence (P08581 25-1390): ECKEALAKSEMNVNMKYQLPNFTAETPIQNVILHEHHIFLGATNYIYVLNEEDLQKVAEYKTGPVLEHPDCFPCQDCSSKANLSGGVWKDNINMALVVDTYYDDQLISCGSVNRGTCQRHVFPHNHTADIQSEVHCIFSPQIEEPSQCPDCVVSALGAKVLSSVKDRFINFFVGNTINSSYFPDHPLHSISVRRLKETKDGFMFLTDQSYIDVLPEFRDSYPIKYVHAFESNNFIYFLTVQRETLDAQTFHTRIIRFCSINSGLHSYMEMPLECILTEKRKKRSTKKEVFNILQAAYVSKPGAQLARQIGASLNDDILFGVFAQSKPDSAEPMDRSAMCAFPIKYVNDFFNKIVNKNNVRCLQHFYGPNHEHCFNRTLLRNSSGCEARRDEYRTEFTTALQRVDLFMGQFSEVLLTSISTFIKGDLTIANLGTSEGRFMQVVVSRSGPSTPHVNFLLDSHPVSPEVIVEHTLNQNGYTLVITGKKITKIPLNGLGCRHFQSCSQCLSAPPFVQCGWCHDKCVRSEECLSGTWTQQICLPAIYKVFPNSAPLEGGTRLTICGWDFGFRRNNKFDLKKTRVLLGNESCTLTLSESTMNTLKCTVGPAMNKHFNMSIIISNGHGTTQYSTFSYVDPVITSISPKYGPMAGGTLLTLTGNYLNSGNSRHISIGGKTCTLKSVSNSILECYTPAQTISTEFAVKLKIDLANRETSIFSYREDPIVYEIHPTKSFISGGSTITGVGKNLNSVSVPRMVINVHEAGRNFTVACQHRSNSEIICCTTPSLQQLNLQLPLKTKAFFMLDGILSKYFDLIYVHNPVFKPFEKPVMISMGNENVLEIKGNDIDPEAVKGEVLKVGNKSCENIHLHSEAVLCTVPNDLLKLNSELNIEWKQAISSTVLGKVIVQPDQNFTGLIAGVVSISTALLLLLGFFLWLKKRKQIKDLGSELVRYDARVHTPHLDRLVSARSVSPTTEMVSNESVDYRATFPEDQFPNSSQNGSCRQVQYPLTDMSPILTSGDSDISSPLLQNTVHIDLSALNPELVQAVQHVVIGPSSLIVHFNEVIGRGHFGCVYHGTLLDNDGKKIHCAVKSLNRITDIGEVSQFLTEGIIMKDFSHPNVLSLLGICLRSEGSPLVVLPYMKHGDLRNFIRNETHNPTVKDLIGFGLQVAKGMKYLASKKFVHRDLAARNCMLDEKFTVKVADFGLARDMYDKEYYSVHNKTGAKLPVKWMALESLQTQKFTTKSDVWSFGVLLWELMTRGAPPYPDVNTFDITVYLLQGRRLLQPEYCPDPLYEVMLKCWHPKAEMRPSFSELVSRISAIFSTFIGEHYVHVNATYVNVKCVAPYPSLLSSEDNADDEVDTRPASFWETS
smiles,measurement,value
O=C1NC(=O)[C@@H](c2cn3c4c(cccc24)CCC3)[C@@H]1c1c[nH]c2ccccc12 [ARQ197],effect on cMET,selectively inhibits cMET
